What was measured:
[1] = test system: mast cells and eosinophil
[2] = test system: p38 and JNK; test: p38 and JNK activation; assay type: cell-based
[3] = target: T1, glucocorticoid receptor (Homo sapiens, UniProt P04150); test: glucocorticoid receptor trafficking (mechanism study); assay type: cell-based
T1 construct: host or cells: T cells are named only for the GRE reporter experiment in the same sentence

[4] = test system: TNF-α; test: acute in vivo model of inflammation (LPS-induced TNF-α production); details: amoxapine alone or reduced dose prednisolone alone
[5] = test system: NFkB and AP1; test: NFkB and AP1 activation; assay type: cell-based
[6] = test system: carrageenan-induced paw edema; test: Rat carrageenan-induced paw edema model, paw swelling; assay type: in vivo; details: amoxapine alone at 2.26 mg/kg
Experimental: A dose-range finding study was performed to determine the anti-inflammatory activity of various ratios of methyl prednisolone acetate and amoxapine in a rat carrageenan-induced paw edema model. […] The molar ratio of methyl prednisolone acetate to amoxapine ranged from 1:1 to 1:300, using total doses of methyl prednisolone acetate of 0.01, 0.03 or 0.1 mg/kg.
The test agent (a combination of methyl prednisolone acetate and amoxapine), vehicle control, or reference agents (methyl prednisolone acetate, amoxapine, or Depo-Medrol®) were administered in the left hind foot pad of rats. After 60 minutes, paw edema was induced by injection of 100 μl of 1% carrageenan in the same foot pad. The paw volume was measured with a water displacement plethysmometer immediately prior to test agent injection (T-1h), at the time of carrageenan injection (T0h), and at T6h. Animals were euthanized by carbon dioxide inhalation. Paw tissue samples were collected and flash frozen in liquid nitrogen. Samples were assayed for TNF-α by enzyme-linked immunoassay (ELISA).

[7] = test system: ERK; test: ERK activation; assay type: cell-based
[8] = chronic in vivo arthritis model (adjuvant model), joint swelling; details: amoxapine alone or reduced dose prednisolone alone
[9] = test system: GRE reporter plasmid; test: transactivation of a transfected GRE reporter plasmid in T cells; assay type: cell-based
[10] = test system: NFAT; test: NFAT activation, translocation and transactivation; assay type: cell-based

T1 sequence (P04150 whole entry, species assumed): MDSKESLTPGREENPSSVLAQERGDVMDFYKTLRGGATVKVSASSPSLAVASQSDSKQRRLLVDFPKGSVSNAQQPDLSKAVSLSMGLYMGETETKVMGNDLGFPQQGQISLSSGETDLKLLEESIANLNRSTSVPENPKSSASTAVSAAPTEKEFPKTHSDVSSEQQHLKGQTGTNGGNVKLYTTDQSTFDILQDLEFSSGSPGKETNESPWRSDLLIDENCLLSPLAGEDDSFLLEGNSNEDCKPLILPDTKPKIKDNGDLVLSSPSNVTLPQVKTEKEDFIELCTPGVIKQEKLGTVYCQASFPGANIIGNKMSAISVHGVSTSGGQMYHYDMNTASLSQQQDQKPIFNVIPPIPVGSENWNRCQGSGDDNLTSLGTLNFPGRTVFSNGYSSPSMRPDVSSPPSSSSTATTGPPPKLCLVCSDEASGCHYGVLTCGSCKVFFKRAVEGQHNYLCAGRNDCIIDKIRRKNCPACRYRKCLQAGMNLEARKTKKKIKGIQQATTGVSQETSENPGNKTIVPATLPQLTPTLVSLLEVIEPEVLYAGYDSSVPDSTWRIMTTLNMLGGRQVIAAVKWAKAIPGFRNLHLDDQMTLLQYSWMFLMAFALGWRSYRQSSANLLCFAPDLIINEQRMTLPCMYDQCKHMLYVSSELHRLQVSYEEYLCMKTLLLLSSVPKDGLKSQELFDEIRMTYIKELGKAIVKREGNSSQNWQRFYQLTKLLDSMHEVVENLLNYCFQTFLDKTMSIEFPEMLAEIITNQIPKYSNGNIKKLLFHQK

Row | SMILES | effect on mast cells and eosinophil activation [1] | effect on p38 and JNK activation [2] | promotion of glucocorticoid receptor trafficking [3] | benefit of the single agent [4] | effect on NFkB and AP1 activation [5] | paw edema compared with vehicle treatment, in words [6] | effect on ERK activation [7] | benefit of the single agent [8] | potentiation of prednisolone's ability to transactivate a GRE reporter plasmid [9] | effect on NFAT activation, translocation and transactivation [10]
1 | CCOC(=O)N1CCC(=C2c3ccc(Cl)cc3CCc3cccnc32)CC1 [loratadine] | inhibits |  |  |  |  |  |  |  |  | 
2 | Clc1ccc2c(c1)C(N1CCNCC1)=Nc1ccccc1O2 [amoxapine] |  | Inhibition | does not promote | modest or no benefit | partially inhibits | not significantly different from the vehicle treatment | unaffected | modest or no benefit | does not potentiate | block

Source: US20070197957A1, “Implantable sensors, implantable pumps and anti-scarring drug combinations” (priority 2005, published 2007)
